# Test results as given in PMC4858680, “A platinum-based hybrid drug design approach to circumvent acquired resistance to molecular targeted tyrosine kinase inhibitors” (Scientific Reports, 2016).
# Where two headings read alike, the source gives them in different places.
# Key:
# FLT3(N841I) = biological target: T1, FLT3(N841I) (Homo sapiens, UniProt P36888, N841I); test: biochemical; conditions: read-out: Percent control
# T1 sequence (P36888 27-993 N841I): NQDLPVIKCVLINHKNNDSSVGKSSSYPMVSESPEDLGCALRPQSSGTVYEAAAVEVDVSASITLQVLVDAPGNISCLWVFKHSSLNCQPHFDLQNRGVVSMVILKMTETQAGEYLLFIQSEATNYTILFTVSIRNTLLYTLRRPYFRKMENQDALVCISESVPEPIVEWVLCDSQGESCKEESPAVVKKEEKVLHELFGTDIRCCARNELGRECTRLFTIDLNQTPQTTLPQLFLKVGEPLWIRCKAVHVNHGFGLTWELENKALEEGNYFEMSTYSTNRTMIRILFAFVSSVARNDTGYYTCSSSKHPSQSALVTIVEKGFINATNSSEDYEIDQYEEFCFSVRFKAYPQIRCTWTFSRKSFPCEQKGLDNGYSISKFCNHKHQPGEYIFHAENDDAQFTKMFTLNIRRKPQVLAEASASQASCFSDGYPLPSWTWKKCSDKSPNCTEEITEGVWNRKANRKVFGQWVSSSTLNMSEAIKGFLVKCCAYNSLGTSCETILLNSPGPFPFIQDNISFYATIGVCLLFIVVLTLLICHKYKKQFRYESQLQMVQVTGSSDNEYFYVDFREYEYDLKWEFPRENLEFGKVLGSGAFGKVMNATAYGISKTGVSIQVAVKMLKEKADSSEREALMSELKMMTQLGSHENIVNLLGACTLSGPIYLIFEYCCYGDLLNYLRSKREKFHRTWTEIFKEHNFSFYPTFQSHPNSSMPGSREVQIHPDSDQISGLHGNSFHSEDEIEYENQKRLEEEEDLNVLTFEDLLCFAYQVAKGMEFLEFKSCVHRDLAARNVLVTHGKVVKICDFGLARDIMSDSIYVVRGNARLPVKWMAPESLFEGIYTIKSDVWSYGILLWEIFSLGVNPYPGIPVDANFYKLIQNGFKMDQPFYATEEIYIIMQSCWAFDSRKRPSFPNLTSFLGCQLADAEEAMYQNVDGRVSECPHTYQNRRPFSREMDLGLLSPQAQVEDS
# RET(V804TL) = RET(V804TL) (Homo sapiens, UniProt P07949, V804L); test: biochemical; conditions: read-out: Percent control
# FLT4 = FLT4 (Homo sapiens, UniProt P35916); test: biochemical; conditions: read-out: Percent control
# EPHB4 = biological target: T2, EPHB4 (Homo sapiens, UniProt P54760); test: biochemical; conditions: read-out: Percent control
# T2 sequence (P54760 16-987): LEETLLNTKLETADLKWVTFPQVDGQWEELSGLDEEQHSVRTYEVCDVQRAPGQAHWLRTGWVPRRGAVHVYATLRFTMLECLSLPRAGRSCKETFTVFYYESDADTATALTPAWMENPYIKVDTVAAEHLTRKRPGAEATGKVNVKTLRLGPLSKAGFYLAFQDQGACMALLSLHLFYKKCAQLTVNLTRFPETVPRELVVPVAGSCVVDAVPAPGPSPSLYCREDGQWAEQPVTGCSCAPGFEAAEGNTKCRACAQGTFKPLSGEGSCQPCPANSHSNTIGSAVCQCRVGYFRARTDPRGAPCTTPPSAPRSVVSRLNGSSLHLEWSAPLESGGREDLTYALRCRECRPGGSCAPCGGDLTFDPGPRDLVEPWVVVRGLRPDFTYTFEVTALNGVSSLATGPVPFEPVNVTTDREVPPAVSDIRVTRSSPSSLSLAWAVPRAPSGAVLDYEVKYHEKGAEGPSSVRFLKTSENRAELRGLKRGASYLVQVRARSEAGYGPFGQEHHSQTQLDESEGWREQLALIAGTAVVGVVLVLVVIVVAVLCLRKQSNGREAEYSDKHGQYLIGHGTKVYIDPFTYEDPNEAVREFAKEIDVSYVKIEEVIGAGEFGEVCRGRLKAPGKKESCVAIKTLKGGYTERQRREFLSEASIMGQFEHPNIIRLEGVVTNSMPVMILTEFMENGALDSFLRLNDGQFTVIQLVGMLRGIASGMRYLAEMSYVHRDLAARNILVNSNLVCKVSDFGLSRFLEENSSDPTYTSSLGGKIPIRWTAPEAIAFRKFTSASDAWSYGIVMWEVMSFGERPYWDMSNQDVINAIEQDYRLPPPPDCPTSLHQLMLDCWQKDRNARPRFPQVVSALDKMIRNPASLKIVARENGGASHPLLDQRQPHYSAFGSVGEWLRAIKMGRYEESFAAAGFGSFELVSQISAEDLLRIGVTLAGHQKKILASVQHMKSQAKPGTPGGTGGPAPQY
# [1] = biological target: ABL1(Q252H)-nonphosphorylated (Homo sapiens, UniProt P00519, Q252H); test: biochemical; conditions: read-out: Percent control
# RET = RET (Homo sapiens, UniProt P07949); test: biochemical; conditions: read-out: Percent control
# RET(M918T) = RET(M918T) (Homo sapiens, UniProt P07949, M918T); test: biochemical; conditions: read-out: Percent control
# K562 = test: Anticancer activity (cytotoxicity) in CML cell line; type: cell-based
# SRC = SRC (Homo sapiens, UniProt P12931); test: biochemical; conditions: read-out: Percent control
# ABL2 = ABL2 (Homo sapiens, UniProt P42684); conditions: 10 μM
# [2] = biological target: ABL1(T315I)-phosphorylated (Homo sapiens, UniProt P00519, T315I); conditions: 10 μM
# ABL1-phosphorylated = ABL1-phosphorylated (Homo sapiens, UniProt P00519); conditions: 10 μM
# EGFR = EGFR (Homo sapiens, UniProt P00533); test: biochemical; conditions: read-out: Percent control
# ABL2, sequence (P42684 whole entry): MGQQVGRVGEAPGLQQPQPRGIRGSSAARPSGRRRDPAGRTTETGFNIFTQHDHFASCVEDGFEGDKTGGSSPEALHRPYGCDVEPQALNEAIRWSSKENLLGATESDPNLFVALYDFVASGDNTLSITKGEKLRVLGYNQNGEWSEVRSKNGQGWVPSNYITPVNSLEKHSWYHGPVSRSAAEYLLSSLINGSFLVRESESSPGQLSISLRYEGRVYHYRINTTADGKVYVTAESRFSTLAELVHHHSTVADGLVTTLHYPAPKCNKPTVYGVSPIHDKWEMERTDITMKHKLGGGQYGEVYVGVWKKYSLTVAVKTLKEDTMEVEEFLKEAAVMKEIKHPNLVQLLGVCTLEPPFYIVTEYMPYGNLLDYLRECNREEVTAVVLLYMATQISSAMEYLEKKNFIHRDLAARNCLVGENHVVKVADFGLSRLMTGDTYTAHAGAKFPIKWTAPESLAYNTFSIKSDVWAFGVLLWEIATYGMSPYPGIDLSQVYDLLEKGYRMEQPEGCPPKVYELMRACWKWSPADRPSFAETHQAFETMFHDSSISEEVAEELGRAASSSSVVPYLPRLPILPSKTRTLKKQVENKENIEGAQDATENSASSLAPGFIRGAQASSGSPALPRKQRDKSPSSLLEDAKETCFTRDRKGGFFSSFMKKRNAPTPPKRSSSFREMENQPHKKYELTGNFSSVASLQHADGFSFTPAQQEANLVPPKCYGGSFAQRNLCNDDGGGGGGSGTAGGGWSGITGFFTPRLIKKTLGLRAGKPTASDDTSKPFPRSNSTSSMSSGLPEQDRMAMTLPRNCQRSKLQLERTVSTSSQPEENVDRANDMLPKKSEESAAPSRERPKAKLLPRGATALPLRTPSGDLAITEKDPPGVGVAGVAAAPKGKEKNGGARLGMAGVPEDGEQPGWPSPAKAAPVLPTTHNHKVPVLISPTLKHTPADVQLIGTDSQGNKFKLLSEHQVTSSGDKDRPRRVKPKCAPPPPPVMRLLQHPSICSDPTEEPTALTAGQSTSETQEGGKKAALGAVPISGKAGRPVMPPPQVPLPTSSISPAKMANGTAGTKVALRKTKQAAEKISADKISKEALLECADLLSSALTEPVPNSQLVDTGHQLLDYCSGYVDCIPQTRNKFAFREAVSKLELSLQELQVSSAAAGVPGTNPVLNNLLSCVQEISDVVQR
# FLT4, sequence (P35916 25-1363): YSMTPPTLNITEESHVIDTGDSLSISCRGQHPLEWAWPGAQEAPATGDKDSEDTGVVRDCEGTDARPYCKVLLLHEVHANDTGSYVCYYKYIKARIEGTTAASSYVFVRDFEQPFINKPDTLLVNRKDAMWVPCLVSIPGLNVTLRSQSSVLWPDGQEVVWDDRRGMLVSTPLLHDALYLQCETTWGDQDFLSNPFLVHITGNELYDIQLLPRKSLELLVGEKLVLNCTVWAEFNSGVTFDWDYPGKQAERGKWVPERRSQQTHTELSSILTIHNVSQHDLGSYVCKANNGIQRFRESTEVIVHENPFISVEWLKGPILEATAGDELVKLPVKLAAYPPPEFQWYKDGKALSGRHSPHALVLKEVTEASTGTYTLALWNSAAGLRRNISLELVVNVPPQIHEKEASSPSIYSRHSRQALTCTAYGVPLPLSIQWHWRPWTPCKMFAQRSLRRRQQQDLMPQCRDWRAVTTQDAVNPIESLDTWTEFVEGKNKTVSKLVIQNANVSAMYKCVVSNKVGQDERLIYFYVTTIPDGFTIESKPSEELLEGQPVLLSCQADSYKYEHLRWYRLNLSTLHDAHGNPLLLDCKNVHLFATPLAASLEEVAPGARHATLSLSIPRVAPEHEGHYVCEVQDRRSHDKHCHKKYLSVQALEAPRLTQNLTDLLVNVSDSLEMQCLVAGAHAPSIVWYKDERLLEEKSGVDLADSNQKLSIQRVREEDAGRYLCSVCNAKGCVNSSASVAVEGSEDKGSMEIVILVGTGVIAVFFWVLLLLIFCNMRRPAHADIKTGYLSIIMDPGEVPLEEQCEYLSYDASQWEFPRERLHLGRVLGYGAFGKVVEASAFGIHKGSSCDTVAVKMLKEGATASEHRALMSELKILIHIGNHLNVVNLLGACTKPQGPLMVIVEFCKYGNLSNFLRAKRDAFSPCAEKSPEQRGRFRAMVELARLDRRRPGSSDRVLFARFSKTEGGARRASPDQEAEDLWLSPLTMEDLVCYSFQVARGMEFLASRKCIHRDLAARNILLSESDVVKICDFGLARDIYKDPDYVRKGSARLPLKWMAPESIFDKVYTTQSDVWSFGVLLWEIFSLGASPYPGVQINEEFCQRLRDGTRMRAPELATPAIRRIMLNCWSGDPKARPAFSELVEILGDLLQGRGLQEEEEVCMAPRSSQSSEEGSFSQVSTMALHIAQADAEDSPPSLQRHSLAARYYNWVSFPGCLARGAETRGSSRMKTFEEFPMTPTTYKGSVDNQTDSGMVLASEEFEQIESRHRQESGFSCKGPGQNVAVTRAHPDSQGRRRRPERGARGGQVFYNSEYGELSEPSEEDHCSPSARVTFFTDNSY
# RET(M918T), sequence (P07949 29-1114 M918T): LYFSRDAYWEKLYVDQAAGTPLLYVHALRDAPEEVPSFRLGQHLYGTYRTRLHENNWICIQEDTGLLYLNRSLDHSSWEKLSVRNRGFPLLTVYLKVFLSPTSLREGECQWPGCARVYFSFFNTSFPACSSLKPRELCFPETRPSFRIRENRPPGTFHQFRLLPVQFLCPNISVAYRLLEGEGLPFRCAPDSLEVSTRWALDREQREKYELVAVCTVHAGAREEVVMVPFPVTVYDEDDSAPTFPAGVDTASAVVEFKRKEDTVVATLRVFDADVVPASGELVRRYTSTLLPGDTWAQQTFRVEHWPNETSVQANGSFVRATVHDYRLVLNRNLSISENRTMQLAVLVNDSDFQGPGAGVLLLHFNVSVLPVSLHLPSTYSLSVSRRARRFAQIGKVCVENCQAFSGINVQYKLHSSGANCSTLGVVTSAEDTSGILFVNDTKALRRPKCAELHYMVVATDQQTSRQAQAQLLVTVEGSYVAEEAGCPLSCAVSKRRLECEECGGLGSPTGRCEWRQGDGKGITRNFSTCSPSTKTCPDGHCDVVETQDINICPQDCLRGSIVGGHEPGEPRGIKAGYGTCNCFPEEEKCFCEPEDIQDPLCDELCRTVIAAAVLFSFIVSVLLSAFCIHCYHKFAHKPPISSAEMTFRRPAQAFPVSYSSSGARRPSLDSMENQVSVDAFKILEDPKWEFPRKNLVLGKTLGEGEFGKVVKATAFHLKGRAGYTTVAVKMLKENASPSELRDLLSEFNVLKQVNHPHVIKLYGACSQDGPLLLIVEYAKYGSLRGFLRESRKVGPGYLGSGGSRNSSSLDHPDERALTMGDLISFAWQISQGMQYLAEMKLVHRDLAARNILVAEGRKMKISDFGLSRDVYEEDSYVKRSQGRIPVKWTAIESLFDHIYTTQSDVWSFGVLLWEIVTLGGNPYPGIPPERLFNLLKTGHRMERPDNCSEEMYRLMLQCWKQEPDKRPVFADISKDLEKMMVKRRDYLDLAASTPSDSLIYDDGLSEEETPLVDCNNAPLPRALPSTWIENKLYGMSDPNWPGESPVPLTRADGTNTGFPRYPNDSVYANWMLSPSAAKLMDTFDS
# SRC, sequence (P12931 whole entry): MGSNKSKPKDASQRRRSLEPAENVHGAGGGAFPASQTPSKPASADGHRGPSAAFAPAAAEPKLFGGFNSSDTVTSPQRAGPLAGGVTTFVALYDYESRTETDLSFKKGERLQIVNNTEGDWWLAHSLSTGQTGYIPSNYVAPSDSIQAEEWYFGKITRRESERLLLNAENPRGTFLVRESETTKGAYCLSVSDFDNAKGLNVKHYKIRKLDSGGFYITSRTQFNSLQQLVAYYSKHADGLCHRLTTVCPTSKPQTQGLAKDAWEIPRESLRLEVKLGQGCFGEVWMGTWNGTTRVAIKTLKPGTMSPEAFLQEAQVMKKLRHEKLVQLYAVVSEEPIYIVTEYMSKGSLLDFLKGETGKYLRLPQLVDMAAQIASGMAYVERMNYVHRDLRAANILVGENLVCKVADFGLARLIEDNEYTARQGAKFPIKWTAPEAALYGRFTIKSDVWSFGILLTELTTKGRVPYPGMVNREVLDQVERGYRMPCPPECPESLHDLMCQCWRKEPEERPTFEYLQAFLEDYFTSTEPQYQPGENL
# RET, sequence (P07949 29-1114): as the sequence (P07949 29-1114 M918T) above, with T890M counted along it
# RET(V804TL), sequence (P07949 29-1114 V804L): as the sequence (P07949 29-1114 M918T) above, with V776L, T890M counted along it
compound,measurement,setting,value
C#Cc1cccc(Nc2ncnc3cc(OCCOC)c(OCCOC)cc23)c1 [Erlotinib],remaining activity at 10 µM,FLT3(N841I),4.8%
same,remaining activity at 10 µM,RET(V804TL),100%
same,remaining activity at 10 µM,FLT4,17.4%
same,remaining activity at 10 µM,EPHB4,18%
same,remaining activity at 10 µM,[1],2.2%
same,remaining activity at 10 µM,RET,11.5%
same,remaining activity at 10 µM,RET(M918T),3.2%
"Cc1ccc(NC(=O)c2ccc(CN3CCN(C)CC3)cc2)cc1Nc1nccc(-c2cccnc2)[n+]1[Pt-2]1([Cl])[NH2+]C2CCCCC2[NH2+]1 (centres unmarked) [1b, oxaliplatin-imatinib]",IC50,"K562; CML cell line, Bcr-Abl positive, Table 1, read-out: Anticancer activity (IC50) K562",2270 ± 330 nM
same,IC50,"K562; Table 2, read-out: Anticancer activity (IC50) K562 Sensitive parental",2270 ± 330 nM
"COc1cc2c(Nc3ccc(Br)cc3F)ncnc2cc1OCC1CCN(C)CC1 [Vandetanib, reference compound]",remaining activity at 10 µM,FLT4,9.9%
same,remaining activity at 10 µM,EPHB4,4.9%
same,remaining activity at 10 µM,SRC,0.7%
"COc1cc2c(Nc3ccc(Br)cc3F)[n+]([Pt-2]3([Cl])[NH2+]C4CCCCC4[NH2+]3)cnc2cc1OCC1CCN(C)CC1 (centres unmarked) [3b, oxaliplatin-vandetanib]",Percent control,ABL2,20%
"C#Cc1cccc(Nc2c3cc(OCCOC)c(OCCOC)cc3nc[n+]2[Pt@SP2-2]([NH3+])([NH3+])[Cl])c1 [2a, cisplatin-erlotinib]",Percent control,[2],30%
same,Percent control,ABL1-phosphorylated,16%
same,Percent control,ABL2,46%
"Cc1ccc(NC(=O)c2ccc(CN3CCN(C)CC3)cc2)cc1Nc1nccc(-c2cccnc2)n1 [Imatinib, reference compound]",remaining activity at 10 µM,EGFR,100%
